Measured values as given in US20250179502A1, “TARGETING NEUROPILIN 2 (NRP2) IN LETHAL PROSTATE CANCER” (UNIVERSITY OF MASSACHUSETTS, priority 2022, published 2025).
Numbered stars: 1 amine (or outer) side, 2 acyl side, 3 side chain; on linkers, the order of the positions; unused ones are H or OH. Bridge positions count the residues as written; N and C are the ends. Square brackets hold non-standard residues; d marks the D form. Peptide text beside a SMILES is read from it. I, II: the chains in the order shown. Actinocin(9to1) = Cc1c2oc3c(C)ccc(C(=O)[*:1])c3nc-2c(C(=O)[*:2])c(N)c1=O; NMeV = CN[C@H](C(=O)O)C(C)C; Sar = CNCC(=O)O

What was measured:
[1] = biological target: T1, Nrp2-b1b2 (Homo sapiens, UniProt O60462); conditions: cited from earlier work
T1 sequence (O60462 276-595 limits assumed): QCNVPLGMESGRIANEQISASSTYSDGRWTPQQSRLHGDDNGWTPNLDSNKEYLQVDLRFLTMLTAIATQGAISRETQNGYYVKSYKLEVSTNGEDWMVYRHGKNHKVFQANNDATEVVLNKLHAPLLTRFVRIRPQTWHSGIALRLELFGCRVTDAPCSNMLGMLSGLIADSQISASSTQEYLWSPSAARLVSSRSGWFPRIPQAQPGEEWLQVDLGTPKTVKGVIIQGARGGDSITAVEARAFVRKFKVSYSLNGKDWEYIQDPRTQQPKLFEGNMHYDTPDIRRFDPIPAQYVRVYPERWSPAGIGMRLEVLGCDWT

[2] = system: PD-L1 mRNA in PC3; assay: PD-L1 mRNA by qPCR in PC3 cells treated with YAP inhibitor; format: cell-based, human; conditions: Verteporfin 2 μM for 24 hours versus DMSO
Description: (D) Bar graphs show fold change of PD-L1/18S mRNA in PC3 treated with DMSO versus PC3 treated with YAP inhibitor (Verteporfin) from 3 independent experiments determined by qPCR.
The following reagents were used: CellTrace™ Violet Cell Proliferation Kit (Thermo Fisher, C34571), eBioscience™ Fixable Viability Dye eFluor™ 780 (Invitrogen, 65-0865-14). Verteporfin was purchased from Tocris and used at a concentration of 2 μM for 24 hours.
Real-time qPCR. RNA extraction was accomplished using an RNA isolation kit (BS88133, Bio Basic Inc.), and cDNAs were produced using a qScript cDNA syn-thesis kit (#95047, Quantabio). SYBR Green (Applied Biosystems) was used as the qPCR master mix. Experiments were performed in triplicate and normalized to 18S. qPCR primer sequences were obtained from the Massachusetts General Hospital/Harvard Medical School PrimerBank (pga.mgh. harvard.edu/primerbank/).

| Molecule | AP-VEGF-C/Nrp2-b1b2 binding [1] | PD-L1 mRNA level (PD-L1/18S) [2] |
| --- | --- | --- |
| Oc1cc2c(cc1O)[C@H]1c3ccccc3CN[C@@H]1CC2 (racemic) [Dihydrexidine] | inhibit | – |
| Cc1c2oc3c(C)ccc(C(=O)N[C@@H]4C(=O)N[C@H](C(C)C)C(=O)N5CCC[C@H]5C(=O)N(C)CC(=O)N(C)[C@@H](C(C)C)C(=O)O[C@@H]4C)c3nc-2c(C(=O)N[C@@H]2C(=O)N[C@H](C(C)C)C(=O)N3CCC[C@H]3C(=O)N(C)CC(=O)N(C)[C@@H](C(C)C)C(=O)O[C@@H]2C)c(N)c1=O [Actinomycin D] (I: T[dV]P[Sar][NMeV] / II: T[dV]P[Sar][NMeV]; ester I:1-I:C, II:1-II:C; linker I:N-II:N via Actinocin(9to1)) | inhibit | – |
| COc1cc(C(=O)NS(=O)(=O)c2ccccc2C)ccc1Cc1cn(C)c2ccc(NC(=O)OC3CCCC3)cc12 [Zafirlukast] | inhibit | – |
| Verteporfin | – | significantly reduced |
